These results are taken from EPA's ToxRefDB 2.

Data set [1] deals with rat. As to conditions: Combined chronic toxicity/carcinogenicity, sprague dawley, Oral, Water, dose end: 24 month, group: systemic.
For data set [2], the system named is rat. As to conditions: Subchronic dermal toxicity, sprague dawley, Topical, dose end: 13 week, group: systemic, systemic / in life observation / clinical signs / desquamation + systemic / in life observation / clinical signs / erythema + systemic / in ….
In data set [3] the test system is rabbit. As to conditions: Prenatal developmental toxicity study, new zealand white, Oral, Gavage/Intubation, dose end: 19 GD.
For another data set, the system named is mouse. As to conditions: Carcinogenicity; b6c3f1; Oral; Feed; dose end: 78 week; group: systemic; systemic / in life observation / body weight / body weight.
In data set [4] the test system is rat. As to conditions: Carcinogenicity; fischer; Oral; Feed; dose end: 78 week; group: systemic; systemic / in life observation / body weight / body weight + systemic / pathology microscopic / bone marrow / atrophy.
For data set [5], the system named is rat. As to conditions: Prenatal developmental toxicity study, sprague dawley, Oral, Gavage/Intubation, dose end: 17 GD.
Data set [6] concerns rat. As to conditions: Subchronic oral toxicity in rodents, other, Water, dose end: 90 day, group: systemic.
Data set [7] deals with rabbit. As to conditions: Prenatal developmental toxicity study, chinchilla, Oral, Gavage/Intubation, dose end: 18 GD.
Data set [8] relates to rat. As to conditions: Prenatal developmental toxicity study, sprague dawley, Oral, Gavage/Intubation, dose end: 15 GD.
The mark [9] stands for this setting: systemic / pathology microscopic / stomach / hyperkeratosis + systemic / pathology microscopic / stomach / hyperplasia + systemic / in life ….
[10] abbreviates: group: developmental, developmental / developmental malformation / general / [other].
[11] abbreviates: group: maternal, systemic / in life observation / body weight / body weight + systemic / in life observation / body weight / body weight gain + systemic / in….
Where [12] appears, read: group: developmental, developmental / developmental malformation / bone / fused + developmental / developmental malformation / brain / dilated cerebral ventricle.
Where [13] appears, read: group: developmental, developmental / developmental malformation / bone / fused + developmental / developmental malformation / brain / dilated cerebral ventricle….
[14] abbreviates: group: maternal, reproductive / reproductive performance / resorptions / resorptions + reproductive / offspring survival early / dead fetuses / dead fetuses….
[15] abbreviates: systemic / in life observation / body weight / body weight + systemic / in life observation / clinical signs / fur (altered appearance) + ….
Setting [16] is: group: developmental, developmental / developmental malformation / bone / unossified + systemic / in life observation / body weight / fetal weight.
The mark [17] stands for this setting: group: maternal, systemic / in life observation / body weight / body weight gain + systemic / in life observation / food consumption / food consumption.
The mark [18] stands for this setting: group: maternal, systemic / in life observation / body weight / body weight gain + systemic / in life observation / food consumption / food consumption + ….
Setting [19] is: group: developmental, developmental / developmental malformation / bone / incomplete ossification.

As for `Cn1sc(Cl)cc1=O` [5-Chloro-2-methyl-3(2H)-isothiazolone], the lowest-observed-adverse-effect level (LOAEL) with rat [1] (systemic / pathology microscopic / stomach / hyperkeratosis + systemic / pathology microscopic / stomach / hyperplasia) stood at 6.6 mg/kg/day; in the data set with rat [2] it was 0.75 mg/kg/day; with rabbit [3] (setting [10]), 8 mg/kg/day; with rabbit [3] (setting [11]) it was 8 mg/kg/day. Further, the NEL in the data set on rat [1] (setting [9]) was 2 mg/kg/day; with rat [2], below 0.75 mg/kg/day; with rabbit [3] (setting [10]), 2 mg/kg/day; in the data set on rabbit [3] (setting [11]), 2 mg/kg/day. In addition, the NOAEL in the data set on rat [1] (setting [9]) was 2 mg/kg/day; in the data set on rat [2] it was below 0.75 mg/kg/day; in the data set with rabbit [3] (setting [10]) it was 2 mg/kg/day; with rabbit [3] (setting [11]), 2 mg/kg/day. Also, the LEL came out at 6.6 mg/kg/day with rat [1] (systemic / pathology microscopic / stomach / hyperkeratosis + systemic / pathology microscopic / stomach / hyperplasia + systemic / …), 0.75 mg/kg/day with rat [2], 8 mg/kg/day in the data set on rabbit [3] (setting [10]) and 8 mg/kg/day in the data set with rabbit [3] (setting [11]).

Turning to `CCc1nc(N)nc(N)c1-c1ccc(Cl)cc1` [Pyrimethamine], the LEL was determined as 75 mg/kg/day in the data set with mouse, 10 mg/kg/day in the data set on rat [4], 1.2 mg/kg/day in the data set with rat [5] (setting [12]) and 2.7 mg/kg/day with rat [5] (setting [14]). Further, the LOAEL in the data set with mouse is above 150 mg/kg/day; in the data set with rat [4] it was above 20 mg/kg/day; in the data set on rat [5] (setting [13]), above 2.7 mg/kg/day; with rat [5] (setting [14]), above 2.7 mg/kg/day. Also, the NEL in the data set with mouse was below 75 mg/kg/day; in the data set on rat [4] it was below 10 mg/kg/day; with rat [5] (setting [12]), below 1.2 mg/kg/day; in the data set on rat [5] (group: maternal, reproductive / reproductive performance / resorptions / resorptions), 1.2 mg/kg/day. In addition, the NOAEL is at least 150 mg/kg/day with mouse, at least 20 mg/kg/day with rat [4], at least 2.7 mg/kg/day with rat [5] (setting [13]) and at least 2.7 mg/kg/day in the data set with rat [5] (setting [14]).

Regarding `CCCCCCCCCCCCCC[P+](CCCC)(CCCC)CCCC.[Cl-]` [Tributyltetradecylphosphonium chloride], the LOAEL in the data set with rat [6] (setting [15]) is 27.2 mg/kg/day; in the data set on rabbit [7] (setting [16]), 11.2 mg/kg/day; in the data set on rabbit [7] (setting [17]), 11.2 mg/kg/day; in the data set on rat [8] (setting [19]), 30 mg/kg/day; with rat [8] (setting [11]), 120 mg/kg/day. Moreover, the NEL is 2.56 mg/kg/day with rat [6] (setting [15]); 3.75 mg/kg/day in the data set on rabbit [7] (setting [16]); 3.75 mg/kg/day with rabbit [7] (setting [18]); 10 mg/kg/day with rat [8] (setting [19]); 20 mg/kg/day with rat [8] (setting [11]). In addition, the NOAEL with rat [6] (setting [15]) was determined as 8.66 mg/kg/day; with rabbit [7] (setting [16]), 3.75 mg/kg/day; in the data set with rabbit [7] (setting [18]) it was 3.75 mg/kg/day; in the data set on rat [8] (setting [19]), 10 mg/kg/day; with rat [8] (setting [11]), 60 mg/kg/day. The LEL in the data set on rat [6] (systemic / organ weight / kidney / relative to body weight) was 8.66 mg/kg/day; in the data set on rabbit [7] (setting [16]) it was 11.2 mg/kg/day; in the data set on rabbit [7] (setting [17]), 11.2 mg/kg/day; in the data set on rat [8] (setting [19]) it was 30 mg/kg/day; in the data set with rat [8] (group: maternal, systemic / in life observation / food consumption / food consumption + systemic / in life observation / clinical signs / respiration (…), 60 mg/kg/day.
